System: cardiac tissue
Experiment: static storage of cardiac tissue sections, TTC tissue viability stain
Parameters: species or system Sprague Dawley (SD) rats
Conditions: 3 μM in DMEM; 24 and 48 hours cool static storage
Procedure: The following protocol was used to assess the ex vivo protective effects of the oCOm compounds in solid, non-perfused biological tissues. Male Sprague Dawley (SD) rats (280-310 g) were decapitated and the hearts rapidly excised. Hearts were cut into 1 mm thick sections and placed in 3 ml of DMEM in sterile 24 well tissue culture plates. Two tissues sections from each heart were immediately stained without storing, with 1% 2,3,5-Triphenyltetrazolium chloride (TTC) in glucose supplemented DMEM for 15 minutes at 37° C. with continuous shaking. Theses tissues represent the baseline tissue viability prior to storage. This staining technique requires active dehydrogenase enzymes to be present in order to convert TCC to a brick red formazan pigment. […] Tissues were then stained with TTC and fixed as above. One control tissue section was left unstained for comparison. All samples were sectioned transversely, photographed and staining intensity assessed qualitatively.

CC12C(=O)C(C)(C(c3ccccc3)=C1c1ccccc1)C1C(=O)N(CCN)C(=O)C12.O=C(O)C(F)(F)F (stereo not shown) [DB-21, 2-(4,7-Dimethyl-1,3,8-trioxo-5,6-diphenyl-3a,4,7,7a-tetrahydro-1H-4,7-methanoisoindol-2(2H)-yl)ethanaminium 2,2,2-trifluoroacetate]
tissue viability by TTC (formazan) staining (in words): little staining was visible

From patent US11072584B2, “Carbon monoxide releasing norbornenone compounds” (OTAGO INNOVATION LIMITED, priority 2015, dated 2021)
